Data taken from patent publication US12570605B2, “Indole compounds, and preparation methods, and uses thereof” (Shenzhen 01 Life Science and Technology Co., Ltd., priority 2021, dated 2026).
“Also recorded” adds a separate entry of the source.

Legend:
[1] = tested on: mouse model with ear AD-like symptoms induced by calcipotriol (MC903); test: Mouse model with ear AD-like symptoms induced by calcipotriol (MC903), second batch of experiments (Embodiment 32); assay type: in vivo, BALB/c mouse; conditions: MC903 5 nmol/mouse every day, 9 days
Description: (§1) A mouse model with ear AD-like symptoms induced by calcipotriol (MC903) was used to investigate these compounds in terms of the treatment activity for AD.
(§2) Referring to the Patent with a publication number of CN 110368386 A, a mouse model induced by MC903 (Calcipotriene) was prepared, wherein both ears of the BALB/c mouse model were applied with MC903, MC903+indole-3-aldehyde (IAId), or MC903+the compound prepared from the embodiments for 11 consecutive days, respectively, and total serum IgE levels, ear thicknesses, and weight loss in relative to the weight at the beginning of the experiment were tested at the end of the experiment.
(§3) The data shown in the results were average values ±SD of five independently repeated trials. Significance analysis was performed using Mann-Whitney test on the differences of corresponding parameters of the mice with the treatment group (MC903+ethanol (EtOH)), which was only administrated with MC903, wherein * indicated P<0.05, ** indicated P<0.01; *** indicated P<0.001.
Therefore, in the second batch of drug tests, the dosage of MC903 was decreased to 5 nmol/mouse every day, and the test period was reduced to 9 days.
(§4) EtOH group was a Blank control group, which was only administrated with ethanol. MC903+ EtOH group was a model control group, which was administrated with Calcipotriene and ethanol. The remaining groups were the groups which were administered with MC903 to construct the model, and then administered with different drugs. Indole-3-aldehyde (IAId) group was the group administered with IAId. Indole-3-methanol (I3C) group was the group administered with I3C. The other compound groups were the groups administered with corresponding compounds.

[2] = tested on: mouse model with ear AD-like symptoms induced by calcipotriol (MC903); test: Mouse model with ear AD-like symptoms induced by calcipotriol (MC903), first batch of experiments (Embodiment 32); assay type: in vivo, BALB/c mouse; conditions: MC903 6.9 nmol/mouse every day
Description: as §1, §2, §3
In this batch of experiments, the dosage of MC903, a drug for constructing the models, was 6.9 nmol/mouse every day, and the experimental results of Compounds 1, 2, 3, 6, 7, 19, 20, 28, 29, 30, 34, 37, 38, and 39 in this batch were shown in FIGS. 11 to 13.
as §4, with “then administrated” for “then administered”, “with IAId, indole-3-methanol” for “with IAId. Indole-3-methanol”

[3] = tested on: mouse model with ear AD-like symptoms induced by calcipotriol (MC903); test: Optimum effective concentration in treatment of AD-like symptoms, MC903 mouse model (Embodiment 33); assay type: in vivo; conditions: dosages per Table 11; vs group only administrated with MC903
Description: The above screened compounds having therapeutic effect on AD-like symptoms were selected to further determine the optimum effective concentration.
Referring to the animal model method in the Embodiment 32, dosages of drugs for each group were determined according to the table below, and the optimal effective concentration in treatment of AD-like symptoms was explored by comparing the differences in ear thicknesses, the total serum IgE levels and the weight loss of the mice with those of the treatment group only administrated with MC903.

[4] = vs model control group (MC903+EtOH), Mann-Whitney test

## CCCCCCCC(=O)OCn1cc(CO)c2ccccc21 [Compound 38, (3-(hydroxymethyl)-1H-indol-1-yl)methyl octanoate]
[1]; screening over both batches
  therapeutic effects on AD-like symptoms in the ear of mice (ear inflammation, tissue HE staining, parameters of multiple experiments): therapeutic effects
[1]; [4]
  reducing ear thicknesses of the mice: statistically significant difference
  reducing the total serum IgE levels of the mice: statistically significant difference
[2]; 11 days
  therapeutic effects on AD-like symptoms in the ear of mice (combined with ear inflammation and tissue HE staining): significant therapeutic effects
[2]; both ears, 11 consecutive days, vs model control group (MC903+EtOH), Mann-Whitney test
  reducing the total serum IgE levels of the mice: statistically significant difference; also recorded: excellent effects
[3]
  inhibitory effect on systematic inflammation (lower total serum IgE levels and improvement on AD-like symptoms in the mice ear): good inhibitory effect; also recorded: excellent inhibitory effect
